Measurements published in the supplement of paper PMC6315032.

Key:
Experiment in all cases: apparent dissociation constant (pKDapp, Kinobeads competition, Cheng-Prusoff corrected) (-log10 M); higher = tighter binding
TTK = TTK (UniProt P33981); settings: affinity matrix / lysate: Kinobeads, mixed HEK293/K-562/placenta lysate
MAST2 = MAST2 (UniProt Q6P0Q8); settings: affinity matrix / lysate: Kinobeads, mixed HEK293/K-562/placenta lysate
CIT = CIT (UniProt O14578); settings: affinity matrix / lysate: Kinobeads, mixed HEK293/K-562/placenta lysate
GSK3B = GSK3B (UniProt P49841); settings: affinity matrix / lysate: Kinobeads, mixed HEK293/K-562/placenta lysate
EPHB1 = EPHB1 (UniProt P54762); settings: affinity matrix / lysate: Kinobeads, mixed HEK293/K-562/placenta lysate
MYLK3 = MYLK3 (UniProt Q32MK0); settings: affinity matrix / lysate: Kinobeads, mixed HEK293/K-562/placenta lysate
CDK7 = CDK7 (UniProt P50613); settings: affinity matrix / lysate: Kinobeads, mixed HEK293/K-562/placenta lysate
LOC100128443 = settings: affinity matrix / lysate: Kinobeads, mixed HEK293/K-562/placenta lysate
PRKAA1 = PRKAA1 (UniProt Q13131); settings: affinity matrix / lysate: Kinobeads, mixed HEK293/K-562/placenta lysate
PRKX = PRKX (UniProt P51817); settings: affinity matrix / lysate: Kinobeads, mixed HEK293/K-562/placenta lysate
EIF2AK1 = EIF2AK1 (UniProt Q9BQI3); settings: affinity matrix / lysate: Kinobeads, mixed HEK293/K-562/placenta lysate
PRKCQ = PRKCQ (UniProt Q04759); settings: affinity matrix / lysate: Kinobeads, mixed HEK293/K-562/placenta lysate
CDK2 = CDK2 (UniProt P24941); settings: affinity matrix / lysate: Kinobeads, mixed HEK293/K-562/placenta lysate
PRKG1 = PRKG1 (UniProt Q13976); settings: affinity matrix / lysate: Kinobeads, mixed HEK293/K-562/placenta lysate
NEK6 = NEK6 (UniProt Q9HC98); settings: affinity matrix / lysate: Kinobeads, mixed HEK293/K-562/placenta lysate
TESK2 = TESK2 (UniProt Q96S53); settings: affinity matrix / lysate: Kinobeads, mixed HEK293/K-562/placenta lysate
PI4K2B = PI4K2B (UniProt Q8TCG2); settings: affinity matrix / lysate: Lipid Kinobeads, mixed HeLa/Jurkat/K-562 lysate
CDC2 = CDC2 (UniProt P06493); settings: affinity matrix / lysate: Kinobeads, mixed HEK293/K-562/placenta lysate
TAOK1 = TAOK1 (UniProt Q7L7X3); settings: affinity matrix / lysate: Kinobeads, mixed HEK293/K-562/placenta lysate
MASTL = MASTL (UniProt Q96GX5); settings: affinity matrix / lysate: Kinobeads, mixed HEK293/K-562/placenta lysate
DAPK3 = DAPK3 (UniProt O43293); settings: affinity matrix / lysate: Kinobeads, mixed HEK293/K-562/placenta lysate
DYRK1A = DYRK1A (UniProt Q13627); settings: affinity matrix / lysate: Kinobeads, mixed HEK293/K-562/placenta lysate
STK35 = STK35 (UniProt Q8TDR2); settings: affinity matrix / lysate: Kinobeads, mixed HEK293/K-562/placenta lysate
CSNK1A1 = CSNK1A1 (UniProt P48729); settings: affinity matrix / lysate: Kinobeads, mixed HEK293/K-562/placenta lysate
CLK1 = CLK1 (UniProt P49759); settings: affinity matrix / lysate: Kinobeads, mixed HEK293/K-562/placenta lysate
CSNK2A2 = CSNK2A2 (UniProt P19784)
TAOK2 = TAOK2 (UniProt Q9UL54); settings: affinity matrix / lysate: Kinobeads, mixed HEK293/K-562/placenta lysate
FGFR3 = FGFR3 (UniProt P22607); settings: affinity matrix / lysate: Kinobeads, mixed HEK293/K-562/placenta lysate
MAPK14 = MAPK14 (UniProt Q16539); settings: affinity matrix / lysate: Kinobeads, mixed HEK293/K-562/placenta lysate
MINK1 = MINK1 (UniProt Q8N4C8); settings: affinity matrix / lysate: Kinobeads, mixed HEK293/K-562/placenta lysate
ZAK = ZAK (UniProt Q9NYL2); settings: affinity matrix / lysate: Kinobeads, mixed HEK293/K-562/placenta lysate
NTRK1 = NTRK1 (UniProt P04629); settings: affinity matrix / lysate: Kinobeads, mixed HEK293/K-562/placenta lysate
PTK2 = PTK2 (UniProt Q05397); settings: affinity matrix / lysate: Kinobeads, mixed HEK293/K-562/placenta lysate
[1] = affinity matrix / lysate: Kinobeads, mixed HEK293/K-562/placenta lysate
[2] = affinity matrix / lysate: Lipid Kinobeads, mixed HeLa/Jurkat/K-562 lysate

Row | apparent dissociation constant (-log10 M) (TTK) | apparent dissociation constant (-log10 M) (MAST2) | apparent dissociation constant (-log10 M) (CIT) | apparent dissociation constant (-log10 M) (GSK3B) | apparent dissociation constant (-log10 M) (EPHB1) | apparent dissociation constant (-log10 M) (MYLK3) | apparent dissociation constant (-log10 M) (CDK7) | apparent dissociation constant (-log10 M) (LOC100128443) | apparent dissociation constant (-log10 M) (PRKAA1) | apparent dissociation constant (-log10 M) (PRKX) | apparent dissociation constant (-log10 M) (EIF2AK1) | apparent dissociation constant (-log10 M) (PRKCQ) | apparent dissociation constant (-log10 M) (CDK2) | apparent dissociation constant (-log10 M) (PRKG1) | apparent dissociation constant (-log10 M) (NEK6) | apparent dissociation constant (-log10 M) (TESK2) | apparent dissociation constant (-log10 M) (PI4K2B) | apparent dissociation constant (-log10 M) (CDC2) | apparent dissociation constant (-log10 M) (TAOK1) | apparent dissociation constant (-log10 M) (MASTL) | apparent dissociation constant (-log10 M) (DAPK3) | apparent dissociation constant (-log10 M) (DYRK1A) | apparent dissociation constant (-log10 M) (STK35) | apparent dissociation constant (-log10 M) (CSNK1A1) | apparent dissociation constant (-log10 M) (CLK1) | apparent dissociation constant (-log10 M) (CSNK2A2; [1]) | apparent dissociation constant (-log10 M) (CSNK2A2; [2]) | apparent dissociation constant (-log10 M) (TAOK2) | apparent dissociation constant (-log10 M) (FGFR3) | apparent dissociation constant (-log10 M) (MAPK14) | apparent dissociation constant (-log10 M) (MINK1) | apparent dissociation constant (-log10 M) (ZAK) | apparent dissociation constant (-log10 M) (NTRK1) | apparent dissociation constant (-log10 M) (PTK2) | Structure (SMILES)
1 | < 6 | < 6 | < 6 | < 6 | < 6 | < 6 | < 6 | < 6 | < 6 | < 6 | < 6 | < 6 | < 6 | < 6 | < 6 | < 6 | < 6 | < 6 | < 6 | < 6 | < 6 | < 6 | < 6 | < 6 | < 6 | < 6 | < 6 | < 6 | < 6 | < 6 | < 6 | < 6 | < 6 | < 6 | CCNC(=O)Nc1ccc(-c2nc(N3CCOC[C@@H]3C)c3c(n2)C(C)(C)S(=O)(=O)C3)cc1 [CZ415]
2 | < 6 | < 6 | < 6 | < 6 | < 6 | < 6 | < 6 | < 6 | < 6 | < 6 | < 6 | < 6 | < 6 | < 6 | < 6 | < 6 | < 6 | < 6 | < 6 | < 6 | < 6 | < 6 | < 6 | < 6 | < 6 | < 6 | < 6 | < 6 | < 6 | < 6 | < 6 | < 6 | < 6 | < 6 | COc1ccc(-c2ccc3c(N4CCOC[C@@H]4C)nc(N4CCOC[C@@H]4C)nc3n2)cc1CO [AZD8055]
